Legend:
Type in all cases: functional, cell-based
[1] = molecular target: T1, Taste receptor type 2 member 10 (Homo sapiens) (UniProt Q9NYW0); test: Activation of full-length human TAS2R10 expressed in HEK293T/Galpha16-gustducin 44 cells assessed as effect on calcium flux by measuring deltaF/F0 ratio at 50 mM by Fluo-4 dye based FLIPR assay
T1 sequence (whole entry): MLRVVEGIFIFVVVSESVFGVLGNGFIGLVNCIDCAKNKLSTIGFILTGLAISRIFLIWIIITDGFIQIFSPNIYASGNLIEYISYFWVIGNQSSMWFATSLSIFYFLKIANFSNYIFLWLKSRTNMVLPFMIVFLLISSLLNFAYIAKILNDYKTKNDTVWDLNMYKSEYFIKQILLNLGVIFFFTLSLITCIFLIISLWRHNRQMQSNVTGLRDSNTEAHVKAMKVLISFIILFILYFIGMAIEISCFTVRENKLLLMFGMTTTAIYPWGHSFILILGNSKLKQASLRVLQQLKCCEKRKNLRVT

[2] = molecular target: T2, Taste receptor type 2 member 31 (Homo sapiens) (UniProt P59538); test: Activation of full-length human TAS2R44 expressed in HEK293T/Galpha16-gustducin 44 cells assessed as effect on calcium flux by measuring deltaF/F0 ratio at 50 mM by Fluo-4 dye based FLIPR assay (reference value: […] +/ - 0.016)
T2 sequence (whole entry): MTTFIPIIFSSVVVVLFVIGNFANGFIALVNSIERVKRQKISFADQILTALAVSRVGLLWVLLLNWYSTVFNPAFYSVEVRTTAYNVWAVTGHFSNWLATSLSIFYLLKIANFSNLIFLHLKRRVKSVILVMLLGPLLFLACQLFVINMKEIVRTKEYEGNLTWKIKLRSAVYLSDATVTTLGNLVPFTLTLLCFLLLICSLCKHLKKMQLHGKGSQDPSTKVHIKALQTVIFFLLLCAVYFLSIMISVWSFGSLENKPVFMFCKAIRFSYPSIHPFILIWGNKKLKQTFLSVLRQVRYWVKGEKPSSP

[3] = molecular target: T3, Taste receptor type 2 member 1 (Homo sapiens, UniProt Q9NYW7); test: (§1) Activation of full-length human TAS2R1 expressed in HEK293T/Galpha16-gustducin 44 cells assessed as effect on calcium flux by measuring deltaF/F0 ratio by Fluo-4 dye based FLIPR assay
T3 sequence (Q9NYW7 whole entry): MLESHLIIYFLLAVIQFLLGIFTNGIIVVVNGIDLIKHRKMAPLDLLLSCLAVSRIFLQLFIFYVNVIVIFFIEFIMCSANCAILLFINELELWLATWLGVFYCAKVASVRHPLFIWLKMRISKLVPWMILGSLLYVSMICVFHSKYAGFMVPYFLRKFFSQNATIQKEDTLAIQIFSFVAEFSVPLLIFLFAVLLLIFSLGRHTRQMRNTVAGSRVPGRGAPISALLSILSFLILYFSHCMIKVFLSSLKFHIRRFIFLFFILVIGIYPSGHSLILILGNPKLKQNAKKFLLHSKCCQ

[4] = molecular target: T4, Taste receptor type 2 member 1 (Homo sapiens) (UniProt Q9NYW7); test: as §1
T4 sequence (whole entry): T3 sequence (Q9NYW7 whole entry)

[5] = molecular target: T1, Taste receptor type 2 member 10 (Homo sapiens); test: Activation of full-length human TAS2R10 expressed in HEK293T/Galpha16-gustducin 44 cells assessed as effect on calcium flux by measuring deltaF/F0 ratio at 100 mM by Fluo-4 dye based FLIPR assay
[6] = molecular target: T4, Taste receptor type 2 member 1 (Homo sapiens); test: Activation of full-length human TAS2R1 expressed in HEK293T/Galpha16-gustducin 44 cells assessed as effect on calcium flux by measuring deltaF/F0 ratio at 25 mM by Fluo-4 dye based FLIPR assay
[7] = molecular target: T4, Taste receptor type 2 member 1 (Homo sapiens); test: Activation of full-length human TAS2R1 expressed in HEK293T/Galpha16-gustducin 44 cells assessed as effect on calcium flux by measuring deltaF/F0 ratio at 3.125 mM by Fluo-4 dye based FLIPR assay
[8] = molecular target: T1, Taste receptor type 2 member 10 (Homo sapiens); test: Activation of full-length human TAS2R10 expressed in HEK293T/Galpha16-gustducin 44 cells assessed as effect on calcium flux by measuring deltaF/F0 ratio at 1.5625 mM by Fluo-4 dye based FLIPR assay
[9] = molecular target: T2, Taste receptor type 2 member 31 (Homo sapiens); test: Activation of full-length human TAS2R44 expressed in HEK293T/Galpha16-gustducin 44 cells assessed as effect on calcium flux by measuring deltaF/F0 ratio at 1.5625 mM by Fluo-4 dye based FLIPR assay (reference value: 0.017 +/ - 0.008)
[10] = molecular target: T1, Taste receptor type 2 member 10 (Homo sapiens); test: Activation of full-length human TAS2R10 expressed in HEK293T/Galpha16-gustducin 44 cells assessed as effect on calcium flux by measuring deltaF/F0 ratio at 0.7813 mM by Fluo-4 dye based FLIPR assay

Ratio [1]: 0.212
Ratio [2]: 0.256
EC50 [3]: 36.3 mM
Activity [4]: Dose-dependent effect
Ratio [5]: 0.437
Ratio [6]: 0.104
Ratio [7]: 0.059
Ratio [8]: 0.047
Ratio [9]: 0.026
Ratio [10]: 0.05
SMILES: OC[C@H]1O[C@H](O[C@]2(CCl)O[C@H](CCl)[C@@H](O)[C@@H]2O)[C@H](O)[C@@H](O)[C@H]1Cl [SUCRALOSE]

From ChEMBL document CHEMBL4417621, “Methods to identify tas2r modulators” (2013)
